# In article PMC10933169, “Potent anticancer activity of (Z)-3-hexenyl-β-D-glucopyranoside in pancreatic cancer cells” (Naunyn-Schmiedeberg's Archives of Pharmacology, 2023):
# Where “and” joins values, the source holds several entries; their conditions need not be identical. Equal entries are not always repeated.
# Experiments:
# Format in all cases: cell-based
# [1] = system: Panc1 (pancreatic carcinoma) cells; experiment: MTT cytotoxicity assay, Panc1; details: Homo sapiens, PANC-1, 48 h treatment
# Description: (§1) The cell lines PANC-1 (pancreatic carcinoma), MCF7 (breast carcinoma), HepG2 (hepatocellular carcinoma), and WI-38 (normal lung fibroblast cells) were obtained from the American Type Culture Collection (ATCC) located in Manassas, Virginia, United States. These cell lines were cultured in DMEM (Invitrogen, Life Technologies, Rockville, MD, USA) medium supplemented with 10% FBS (Fetal Bovine Serum, Hyclone, Thermo Fisher Scientific, Waltham, MA, USA) and 1% penicillin (Sigma-Aldrich, Louis, MO, USA). The cells were maintained at 37°C in a 5% CO2 and 95% humidity environment for a maximum period of two weeks to ensure their viability for further experimentation. Cell detachment was achieved using a solution containing 0.25% (w/v) trypsin (Sigma-Aldrich, Louis, MO, USA) and 0.53 mM EDTA ((Sigma-Aldrich, Louis, MO, USA), followed by re-cultivation in fresh media.
# The cultivated cells were seeded in 96-well plates at a concentration of 1 × 10^4 cells/100 μL per well (Naik et al. [2014]). The cultured plates were then incubated for 24 hours at 37°C. […] The tested concentrations of the compounds (1, 10, 30, and 100 µg/mL) in 0.01 - 0.1% DMSO in ddH2O were prepared by diluting the stock solutions with double-distilled water (ddH2O). […] A negative control using 0.1% DMSO in ddH2O was also included. The treated cells were further incubated for 48 hours at 37 °C. The media of the treated and control plates were removed and replaced by fresh media containing MTT (Sigma, Louis, MO, USA) reagent in a concentration of 1 mg/mL (Ponnusamy et al. [2016]), then incubated for 2 hours. The viability of the cancer cells was determined by measuring the amount of formazan formed by viable cells. […] The intensity of the produced colour was measured using an ELISA plate reader (Bio-Tek EL 800, Agilent technology, Santa Clara, CA, USA) at wavelength of 570 nm. The percent of cells viability was calculated by the following equation: %viability=AA570oftreated-AA570ofblank/AA570ofcontrol-AA570ofblank×100
# (§2) AA Average of triplicate absorbances for each sample concentration
# [2] = system: HepG2 (hepatocellular carcinoma) cells; experiment: MTT cytotoxicity assay, HepG2; details: Homo sapiens, 48 h treatment
# Description: as §1, with “Cell detachment was achieved using a solution containing 0.25% (w/v) trypsin (Sigma-Aldrich, Louis, MO, USA) and 0.53 mM EDTA ((Sigma-Aldrich, Louis, MO, USA), followed by re-cultivation in fresh media.” left out
# (§3) The cultivated cells were seeded in 96-well plates at a concentration of 1 × 10^4 cells/100 μL per well (Naik et al. [2014]). […] The viability of the cancer cells was determined by measuring the amount of formazan formed by viable cells. […] The intensity of the produced colour was measured using an ELISA plate reader (Bio-Tek EL 800, Agilent technology, Santa Clara, CA, USA) at wavelength of 570 nm. The percent of cells viability was calculated by the following equation: %viability=AA570oftreated-AA570ofblank/AA570ofcontrol-AA570ofblank×100
# as §2
# [3] = system: MCF7 (breast carcinoma) cells; experiment: MTT cytotoxicity assay, MCF7; details: Homo sapiens, 48 h treatment
# Description: as §1, with “Cell detachment was achieved using a solution containing 0.25% (w/v) trypsin (Sigma-Aldrich, Louis, MO, USA) and 0.53 mM EDTA ((Sigma-Aldrich, Louis, MO, USA), followed by re-cultivation in fresh media.” left out
# as §3, §2
# [4] = MTT cytotoxicity assay, WI-38 normal cells; details: human, WI-38 normal lung fibroblast cells, 48 h treatment, read-out: Cytotoxicity IC50 WI38
# Description: as §1, with “Cell detachment was achieved using a solution containing 0.25% (w/v) trypsin (Sigma-Aldrich, Louis, MO, USA) and 0.53 mM EDTA ((Sigma-Aldrich, Louis, MO, USA), followed by re-cultivation in fresh media.” left out
# as §3, §2
# [5] = system: WI-38 (normal lung fibroblast cells); experiment: MTT cytotoxicity assay, WI-38 normal cells; details: 48 h treatment, read-out: Cytotoxicity IC50 WI38
# Description: as §1, with “Cell detachment was achieved using a solution containing 0.25% (w/v) trypsin (Sigma-Aldrich, Louis, MO, USA) and 0.53 mM EDTA ((Sigma-Aldrich, Louis, MO, USA), followed by re-cultivation in fresh media.” left out
# as §3, §2
# [6] = system: Panc1 cells; experiment: Flow cytometry analysis of cell DNA contents / cell cycle (propidium iodide); details: 10 µM
# Description: All reagents and kits for this assay were obtained from Abcam (Abcam Technology, Boston, MA, USA). The detection of DNA cell contents and cell cycle status was conducted following the established method (Xu et al. [2001]). To provide a brief overview, Panc1 pancreatic cancer cells (ATCC, Manassas, Virginia, USA) were cultured in a single-cell suspension in DMEM medium (Invitrogen, Life Technologies, Rockville, MD, USA). Subsequently, the cells were fixed in 66% ethanol (Sigma-Aldrich, Louis, MO, USA) and kept on ice for 2 hours. Afterward, the cancer cells were washed with a PBS (Sigma-Aldrich, Louis, MO, USA) solution (5 mL of 10X PBS + 45 mL water), re-cultured in fresh medium, and incubated at 37 °C for 24 hours. A concentration of 10 µM of (Z)-3-hexenyl-β-D-glucopyranoside was added in triplicate, chosen based on previously reported data (Ponnusamy et al. [2016]; Xu et al. [2001]) for 24h. The second dose of 10 µM of (Z)-3-hexenyl-β-D-glucopyranoside was added to the Panc1 cells then incubated for 24 h. Following a 48-hour incubation period from the first dose, the cells were trypsinized, fixed, and stained with propidium iodide-RNase enzyme reagent (9.45 mL PBS + 500 μL 20X propidium iodide + 50 μL 200X RNase) from Abcam Technology, Boston, MA, USA. […] The incubation time for fluorescence quantification was 30 minutes. The experiment was repeated twice.
# [7] = system: Panc1 cells; experiment: Annexin V-FITC cellular apoptotic assay; details: 10 µM, 48 h
# Description: The reagents used in this assay included the Annexin V-FITC kit (Abcam Technology, Boston, MA, USA), 1X binding buffer (Abcam Technology, Boston, MA, USA), and propidium iodide (Bio Vision Research Products, Mountain View, CA, USA). Panc1 cells were seeded in 6-well plates and incubated at 37 °C for 24 hours. Compound 1 ((Z)-3-hexenyl-β-D-glucopyranoside) was then added to the cultivated Panc1 6-well plates at a concentration of 10 µM and incubated for 48 hours. Subsequently, the cancer cells were trypsinized and centrifuged for 10 minutes at 300 rpm. The resulting precipitate was resuspended in 500 µL of 1X binding buffer. Annexin V-FITC (5 µL) and propidium iodide (5 µL) reagents were added to the treated cancer cell plates and incubated for 5 minutes in the dark at room temperature. A flow cytometer (Novocyte, Agilent technology, Santa Clara, CA, USA) with an excitation maximum of 488 nm and an emission maximum of 530 nm was employed to measure the intensity of annexin-binding phosphatidylserine (PS) and consequently determine the amount of apoptotic cells (Koopman et al. [1994]).
# [8] = system: Casp3 gene expression in Panc1 cells; experiment: SYBR Green RT-PCR gene expression, caspase3; details: 48 h, (Z)-3-hexenyl-β-D-glucopyranoside at 10 µM, control 1
# Description: (§4) The effects of 10 µM of (Z)-3-hexenyl-β-D-glucopyranoside on the mRNA expression of caspase3, bax, and Bcl-2 genes were investigated using the reverse transcription-polymerase […] technique. After a 48-hour incubation of (Z)-3-hexenyl-β-D-glucopyranoside in Panc1 (pancreatic carcinoma) cells, mRNA isolation of the selected proteins was performed using the RN easy extraction kit (Qiagen, Hilden, Germany), following previously described methods (Janicke et al. [1998]). For real-time quantitative PCR of the RNA templates, a one-step RT-PCR kit with SYBR® Green (Bio-Rad SYBR Green PCR MMX, Hercules, California, USA) was added to a 25 μL 2X SYBR® Green RT-PCR reaction mix (Bio-Rad, Hercules, California, USA). The reaction mix contained 2X reaction buffer with 0.4 mM of each dNTP, magnesium chloride, iTaq DNA polymerase, 20 nM fluorescein SYBR® Green I dye, stabilizers, 11 μL nuclease-free water, 1.5 μL reverse primer (10 μM), 1.5 μL forward primer (10 μM), 1 μL iScript reverse transcriptase, and RNA template (1 pg to 100 ng total RNA). The cDNA synthesis and PCR amplifications were performed in the same tube using Rotor-Gene RT-PCR (Qiagen, Hilden, Germany) software 1.7 (Abed et al. [2021]). The primers used in the RT-PCR reaction were obtained from Corbett Life Science Division (Reg. No. QEC21313), Corbett Research, Mortlake, Australia. […]
# [9] = system: Bax gene expression in Panc1 cells; experiment: SYBR Green RT-PCR gene expression, Bax; details: 48 h, (Z)-3-hexenyl-β-D-glucopyranoside at 10 µM, control 1.436
# Description: as §4
# [10] = system: Bcl-2 gene expression in Panc1 cells; experiment: SYBR Green RT-PCR gene expression, Bcl-2; details: 48 h, (Z)-3-hexenyl-β-D-glucopyranoside at 10 µM, control 1
# Description: as §4
SMILES,IC50 [1] [µM],IC50 [2] [µM],IC50 [3] [µM],IC50 at 48 h [4] [µM],IC50 [5] [µM],Cell cycle effect (Comment) [6],DNA content %G2/M ([6]; control 10.47) [%],DNA content %S ([6]; control 32.11) [%],DNA content %G0-G1 ([6]; control 57.42) [%],Cell cycle effect (Comment) ([6]; listed as E-W-4),Necrosis [7] [%],Apoptosis Late ([7]; control 0.28%) [%],Apoptosis Early ([7]; control 0.47%) [%],Apoptosis Total ([7]; control 1.86%),RT-PCR results fold change Casp3 [8] [fold],RT-PCR results fold change Bax [9] [fold],RT-PCR results fold change Bcl-2 [10] [fold]
"CCC=CCCOC1OC(CO)C(O)C(O)C1O [Compound 1, (Z)-3-hexenyl-β-D-glucopyranoside]",7.6,45.8,109,194,195,cell growth arrest at the S phase,3.38,44.01,52.61,Cell growth arrest@ S phase,5.52,9.85,26.15,42% and 41.52%,4.064,3.173,0.231
O=C(O)c1cc(O)c(O)c(O)c1 [Gallic acid],21.8,,,,,,,,,,,,,,,,
Oc1cccc(O)c1O [Pyrogallol],198,,,,,,,,,,,,,,,,
